One assay addresses T1, PAK4 (Homo sapiens, UniProt O96013).
T1 construct: DNA tag (qPCR read-out); purchased Ambit Biosciences (KINOMEscan service)
More on the design: method as in earlier work. The note with it: Table S1; cited from earlier work.

In the next assay the test system is PANC-1. Nature of the assay: MTT cell viability assay. The settings on record: Homo sapiens, PANC-1, 72 h. A general note: Tetrazolium assays rely on reduction of a dye to a coloured formazan, in cell work by metabolically active cells.
The target in the next assay is T2, ARK5 (Homo sapiens, UniProt O60285).
T2 construct: purchased DiscoveRx KINOMEscan (Ambit Biosciences)
Nature of the assay: KINOMEscan panel screen. Type of assay: binding. The settings on record: read-out: Percent Control(%).

The target of a further assay is T3, MARK4 (Homo sapiens, UniProt Q96L34).
T3 construct: purchased DiscoveRx KINOMEscan (Ambit Biosciences)
Nature of the assay: KINOMEscan panel screen. The format is binding. The note with it: read-out: Percent Control(%).

Another assay addresses T4, SIK (Homo sapiens, UniProt P57059).
T4 construct: purchased DiscoveRx KINOMEscan (Ambit Biosciences)
Nature of the assay: KINOMEscan panel screen. The format is binding. The note with it: read-out: Percent Control(%).

The subject of a further assay is KG-1. Nature of the assay: MTT cell viability assay. The note with it: Homo sapiens, KG-1, 72 h.
For another assay, the target named is FLT3-D835Y (Homo sapiens, UniProt P36888, D835Y). Nature of the assay: KINOMEscan panel screen. More on the design: purchased DiscoveRx KINOMEscan (Ambit Biosciences). The format is binding. The settings on record: read-out: Percent Control(%).
A further assay concerns the target T5, DMPK (Homo sapiens, UniProt Q09013).
T5 construct: purchased DiscoveRx KINOMEscan (Ambit Biosciences)
T5 sequence (Q09013 1-629): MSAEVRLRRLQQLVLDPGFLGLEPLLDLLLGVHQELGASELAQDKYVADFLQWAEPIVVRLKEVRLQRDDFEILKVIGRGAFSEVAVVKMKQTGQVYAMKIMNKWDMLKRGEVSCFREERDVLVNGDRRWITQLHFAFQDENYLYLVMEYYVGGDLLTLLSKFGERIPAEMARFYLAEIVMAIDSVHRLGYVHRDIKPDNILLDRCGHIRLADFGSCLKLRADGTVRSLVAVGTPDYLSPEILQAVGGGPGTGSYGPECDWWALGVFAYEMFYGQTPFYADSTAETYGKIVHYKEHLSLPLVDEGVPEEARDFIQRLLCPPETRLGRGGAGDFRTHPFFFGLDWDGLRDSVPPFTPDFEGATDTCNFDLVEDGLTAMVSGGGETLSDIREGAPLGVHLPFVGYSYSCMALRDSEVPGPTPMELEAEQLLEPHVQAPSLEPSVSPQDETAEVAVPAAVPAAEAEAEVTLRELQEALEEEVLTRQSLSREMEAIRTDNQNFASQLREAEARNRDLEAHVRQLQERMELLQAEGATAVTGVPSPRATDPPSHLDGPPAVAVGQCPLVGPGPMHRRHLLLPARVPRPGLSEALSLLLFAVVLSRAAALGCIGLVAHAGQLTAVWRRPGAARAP
Nature of the assay: KINOMEscan kinase binding assay (Kd). The settings on record: Table S1. The source says: In vitro KINOMEscan kinase binding assays (Ambit Biosciences) were employed to determine the binding affinity (Kd) of compounds[41][42].
compound 1. The y have very similar spectrum of activity in enz ymatic and cellular
levels. Both of them have the ability to inhibit Wnt/β -catenin si gnalin g. However, in […]

For the next assay, the target named is T6, CSNK1A1 (Homo sapiens, UniProt P48729).
T6 construct: purchased DiscoveRx KINOMEscan (Ambit Biosciences)
Nature of the assay: KINOMEscan panel screen. Type of assay: binding. The settings on record: read-out: Percent Control(%).

Assay [1] addresses T7, RSK2(Kin.Dom.1-N-terminal) (Homo sapiens, UniProt P51812).
T7 construct: RSK2(Kin.Dom.1-N-terminal); purchased DiscoveRx KINOMEscan (Ambit Biosciences)
Nature of the assay: KINOMEscan panel screen. Type of assay: binding. The settings on record: read-out: Percent Control(%).

Another assay addresses T8, SRC (Homo sapiens, UniProt P12931).
T8 construct: purchased DiscoveRx KINOMEscan (Ambit Biosciences)
Nature of the assay: KINOMEscan panel screen. Type of assay: binding. The note with it: read-out: Percent Control(%).

For a further assay, the target named is T9, EPHA5 (Homo sapiens, UniProt P54756).
T9 construct: purchased DiscoveRx KINOMEscan (Ambit Biosciences)
Nature of the assay: KINOMEscan panel screen. The settings on record: read-out: Percent Control(%). The format is binding.

Another assay has as its target T10, STK36 (Homo sapiens, UniProt Q9NRP7).
T10 construct: purchased DiscoveRx KINOMEscan (Ambit Biosciences)
Nature of the assay: KINOMEscan panel screen. The format is binding. The settings on record: read-out: Percent Control(%).

Another assay addresses T11, LIMK1 (Homo sapiens, UniProt P53667).
T11 construct: purchased DiscoveRx KINOMEscan (Ambit Biosciences)
Nature of the assay: KINOMEscan panel screen. Type of assay: binding. The note with it: read-out: Percent Control(%).

The test system of another assay is C32. Nature of the assay: MTT cell viability assay. The note with it: Homo sapiens, C32, 72 h.
In another assay the target is T12, STK33 (Homo sapiens, UniProt Q9BYT3).
T12 construct: purchased DiscoveRx KINOMEscan (Ambit Biosciences)
T12 sequence (Q9BYT3 whole entry): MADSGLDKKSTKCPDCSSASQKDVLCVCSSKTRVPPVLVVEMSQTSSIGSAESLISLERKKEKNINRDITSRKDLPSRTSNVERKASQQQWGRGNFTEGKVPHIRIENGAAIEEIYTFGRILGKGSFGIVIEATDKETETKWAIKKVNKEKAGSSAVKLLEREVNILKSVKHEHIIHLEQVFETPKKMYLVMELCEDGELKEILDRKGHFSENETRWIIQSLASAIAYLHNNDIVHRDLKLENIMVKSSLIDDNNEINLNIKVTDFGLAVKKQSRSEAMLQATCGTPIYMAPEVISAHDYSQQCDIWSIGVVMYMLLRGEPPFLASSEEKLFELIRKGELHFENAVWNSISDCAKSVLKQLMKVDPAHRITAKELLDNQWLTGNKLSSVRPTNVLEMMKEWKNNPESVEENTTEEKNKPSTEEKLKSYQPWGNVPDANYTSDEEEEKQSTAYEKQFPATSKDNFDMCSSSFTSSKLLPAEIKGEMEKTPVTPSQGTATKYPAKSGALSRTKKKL
Nature of the assay: KINOMEscan panel screen. Type of assay: binding. The note with it: read-out: Percent Control(%).

The target in the next assay is T13, GSK3B (Homo sapiens, UniProt P49841).
T13 construct: purchased DiscoveRx KINOMEscan (Ambit Biosciences)
T13 sequence (P49841 whole entry): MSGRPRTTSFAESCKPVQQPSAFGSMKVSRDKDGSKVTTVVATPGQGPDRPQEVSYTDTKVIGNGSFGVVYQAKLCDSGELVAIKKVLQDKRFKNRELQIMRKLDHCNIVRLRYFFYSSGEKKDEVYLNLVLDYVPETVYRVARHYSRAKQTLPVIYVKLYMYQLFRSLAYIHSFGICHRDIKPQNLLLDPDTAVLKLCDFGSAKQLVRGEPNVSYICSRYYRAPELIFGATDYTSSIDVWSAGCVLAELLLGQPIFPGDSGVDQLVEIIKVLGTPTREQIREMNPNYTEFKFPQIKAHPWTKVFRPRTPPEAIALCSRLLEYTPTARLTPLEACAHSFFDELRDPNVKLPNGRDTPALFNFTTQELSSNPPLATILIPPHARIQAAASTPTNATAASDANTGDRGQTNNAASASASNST
Nature of the assay: KINOMEscan panel screen. The settings on record: read-out: Percent Control(%). Type of assay: binding.

The target of another assay is T14, FGFR3 (Homo sapiens, UniProt P22607).
T14 construct: purchased DiscoveRx KINOMEscan (Ambit Biosciences)
T14 sequence (P22607 23-806): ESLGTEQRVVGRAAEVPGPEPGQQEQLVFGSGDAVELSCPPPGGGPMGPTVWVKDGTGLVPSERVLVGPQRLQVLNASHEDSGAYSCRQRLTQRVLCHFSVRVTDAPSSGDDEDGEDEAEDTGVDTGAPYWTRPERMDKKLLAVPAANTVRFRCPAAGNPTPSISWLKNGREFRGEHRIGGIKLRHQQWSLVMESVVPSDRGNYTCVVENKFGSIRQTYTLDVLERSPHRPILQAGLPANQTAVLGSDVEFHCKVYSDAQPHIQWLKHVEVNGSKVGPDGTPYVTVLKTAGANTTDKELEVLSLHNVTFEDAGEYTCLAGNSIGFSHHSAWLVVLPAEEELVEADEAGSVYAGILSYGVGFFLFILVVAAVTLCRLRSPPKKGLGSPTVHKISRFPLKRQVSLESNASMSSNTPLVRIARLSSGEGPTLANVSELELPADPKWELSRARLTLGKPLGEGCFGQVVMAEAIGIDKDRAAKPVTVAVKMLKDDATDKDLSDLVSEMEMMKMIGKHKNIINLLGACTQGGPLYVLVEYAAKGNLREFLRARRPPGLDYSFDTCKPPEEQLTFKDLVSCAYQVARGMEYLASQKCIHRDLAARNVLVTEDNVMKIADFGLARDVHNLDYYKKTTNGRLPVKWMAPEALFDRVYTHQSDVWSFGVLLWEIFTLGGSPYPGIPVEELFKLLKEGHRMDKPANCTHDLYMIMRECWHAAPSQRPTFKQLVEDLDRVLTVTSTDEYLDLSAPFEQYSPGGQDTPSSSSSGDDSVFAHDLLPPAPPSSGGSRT
Nature of the assay: KINOMEscan panel screen. Type of assay: binding. The note with it: read-out: Percent Control(%).

The target in a further assay is T15, FGFR2 (Homo sapiens, UniProt P21802).
T15 construct: purchased DiscoveRx KINOMEscan (Ambit Biosciences)
T15 sequence (P21802 22-821): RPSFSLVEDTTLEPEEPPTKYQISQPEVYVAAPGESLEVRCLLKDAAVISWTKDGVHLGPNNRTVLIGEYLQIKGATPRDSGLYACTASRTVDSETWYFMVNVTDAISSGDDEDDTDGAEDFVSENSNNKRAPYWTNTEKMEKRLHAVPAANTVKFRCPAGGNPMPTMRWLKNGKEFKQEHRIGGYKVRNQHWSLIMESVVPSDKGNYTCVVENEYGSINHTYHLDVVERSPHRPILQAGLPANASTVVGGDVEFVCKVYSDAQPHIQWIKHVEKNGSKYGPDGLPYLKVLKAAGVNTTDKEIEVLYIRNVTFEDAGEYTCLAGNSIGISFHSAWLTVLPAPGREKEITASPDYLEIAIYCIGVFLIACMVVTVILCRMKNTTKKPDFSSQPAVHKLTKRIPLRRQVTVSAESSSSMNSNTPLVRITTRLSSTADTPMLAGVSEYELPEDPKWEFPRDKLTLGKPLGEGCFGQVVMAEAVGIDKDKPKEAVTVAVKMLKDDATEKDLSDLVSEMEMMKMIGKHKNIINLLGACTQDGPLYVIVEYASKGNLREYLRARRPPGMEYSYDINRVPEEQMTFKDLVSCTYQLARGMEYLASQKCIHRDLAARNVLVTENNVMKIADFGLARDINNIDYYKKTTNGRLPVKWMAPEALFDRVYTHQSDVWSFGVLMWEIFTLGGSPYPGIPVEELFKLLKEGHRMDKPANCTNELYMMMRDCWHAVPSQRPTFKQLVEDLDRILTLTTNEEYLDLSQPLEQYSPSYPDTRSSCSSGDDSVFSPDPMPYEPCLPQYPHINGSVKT
Nature of the assay: KINOMEscan panel screen. The format is binding. The note with it: read-out: Percent Control(%).

The next assay concerns the target T16, MST1 (Homo sapiens, UniProt Q13043).
T16 construct: purchased DiscoveRx KINOMEscan (Ambit Biosciences)
Nature of the assay: KINOMEscan panel screen. Type of assay: binding. The settings on record: read-out: Percent Control(%).

The target of another assay is T17, MARK2 (Homo sapiens, UniProt Q7KZI7).
T17 construct: purchased DiscoveRx KINOMEscan (Ambit Biosciences)
Nature of the assay: KINOMEscan panel screen. Type of assay: binding. The settings on record: read-out: Percent Control(%).

A further assay concerns the target T18, PIM3 (Homo sapiens, UniProt Q86V86).
T18 construct: purchased DiscoveRx KINOMEscan (Ambit Biosciences)
Nature of the assay: KINOMEscan panel screen. The note with it: read-out: Percent Control(%). The format is binding.

A further assay deals with T19, PIK3CA(I800L) (Homo sapiens, UniProt P42336, I800L).
T19 construct: purchased DiscoveRx KINOMEscan (Ambit Biosciences)
Nature of the assay: KINOMEscan panel screen. The format is binding. The settings on record: read-out: Percent Control(%).

SMILES strings stand for the structures.

T16 sequence (Q13043 whole entry): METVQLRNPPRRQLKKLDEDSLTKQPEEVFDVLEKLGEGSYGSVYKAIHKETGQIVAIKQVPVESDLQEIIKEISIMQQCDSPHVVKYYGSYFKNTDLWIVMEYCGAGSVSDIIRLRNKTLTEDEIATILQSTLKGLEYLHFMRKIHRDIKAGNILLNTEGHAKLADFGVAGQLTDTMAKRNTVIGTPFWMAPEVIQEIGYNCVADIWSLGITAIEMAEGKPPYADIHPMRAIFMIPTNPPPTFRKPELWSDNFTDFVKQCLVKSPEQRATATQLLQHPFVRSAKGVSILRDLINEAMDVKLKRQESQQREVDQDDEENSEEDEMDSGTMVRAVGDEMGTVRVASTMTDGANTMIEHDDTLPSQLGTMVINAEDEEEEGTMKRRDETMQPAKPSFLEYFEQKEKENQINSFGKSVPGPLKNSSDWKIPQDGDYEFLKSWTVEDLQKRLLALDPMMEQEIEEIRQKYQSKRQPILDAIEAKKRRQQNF
T1 sequence (O96013 whole entry): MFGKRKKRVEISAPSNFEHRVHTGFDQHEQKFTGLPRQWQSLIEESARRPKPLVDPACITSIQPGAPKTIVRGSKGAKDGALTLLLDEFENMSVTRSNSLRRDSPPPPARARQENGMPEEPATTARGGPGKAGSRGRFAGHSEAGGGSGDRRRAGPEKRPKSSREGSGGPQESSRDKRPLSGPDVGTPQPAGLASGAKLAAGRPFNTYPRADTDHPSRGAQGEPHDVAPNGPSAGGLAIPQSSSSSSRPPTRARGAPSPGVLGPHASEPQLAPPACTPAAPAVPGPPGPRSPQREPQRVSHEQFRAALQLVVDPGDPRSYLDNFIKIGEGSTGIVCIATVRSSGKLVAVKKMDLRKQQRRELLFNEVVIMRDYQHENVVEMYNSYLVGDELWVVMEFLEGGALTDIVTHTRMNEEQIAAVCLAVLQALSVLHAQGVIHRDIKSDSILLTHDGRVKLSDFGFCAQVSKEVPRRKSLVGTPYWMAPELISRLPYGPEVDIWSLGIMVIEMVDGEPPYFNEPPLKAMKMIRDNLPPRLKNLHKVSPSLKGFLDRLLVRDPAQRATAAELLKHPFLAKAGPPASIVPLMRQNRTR
T10 sequence (Q9NRP7 whole entry): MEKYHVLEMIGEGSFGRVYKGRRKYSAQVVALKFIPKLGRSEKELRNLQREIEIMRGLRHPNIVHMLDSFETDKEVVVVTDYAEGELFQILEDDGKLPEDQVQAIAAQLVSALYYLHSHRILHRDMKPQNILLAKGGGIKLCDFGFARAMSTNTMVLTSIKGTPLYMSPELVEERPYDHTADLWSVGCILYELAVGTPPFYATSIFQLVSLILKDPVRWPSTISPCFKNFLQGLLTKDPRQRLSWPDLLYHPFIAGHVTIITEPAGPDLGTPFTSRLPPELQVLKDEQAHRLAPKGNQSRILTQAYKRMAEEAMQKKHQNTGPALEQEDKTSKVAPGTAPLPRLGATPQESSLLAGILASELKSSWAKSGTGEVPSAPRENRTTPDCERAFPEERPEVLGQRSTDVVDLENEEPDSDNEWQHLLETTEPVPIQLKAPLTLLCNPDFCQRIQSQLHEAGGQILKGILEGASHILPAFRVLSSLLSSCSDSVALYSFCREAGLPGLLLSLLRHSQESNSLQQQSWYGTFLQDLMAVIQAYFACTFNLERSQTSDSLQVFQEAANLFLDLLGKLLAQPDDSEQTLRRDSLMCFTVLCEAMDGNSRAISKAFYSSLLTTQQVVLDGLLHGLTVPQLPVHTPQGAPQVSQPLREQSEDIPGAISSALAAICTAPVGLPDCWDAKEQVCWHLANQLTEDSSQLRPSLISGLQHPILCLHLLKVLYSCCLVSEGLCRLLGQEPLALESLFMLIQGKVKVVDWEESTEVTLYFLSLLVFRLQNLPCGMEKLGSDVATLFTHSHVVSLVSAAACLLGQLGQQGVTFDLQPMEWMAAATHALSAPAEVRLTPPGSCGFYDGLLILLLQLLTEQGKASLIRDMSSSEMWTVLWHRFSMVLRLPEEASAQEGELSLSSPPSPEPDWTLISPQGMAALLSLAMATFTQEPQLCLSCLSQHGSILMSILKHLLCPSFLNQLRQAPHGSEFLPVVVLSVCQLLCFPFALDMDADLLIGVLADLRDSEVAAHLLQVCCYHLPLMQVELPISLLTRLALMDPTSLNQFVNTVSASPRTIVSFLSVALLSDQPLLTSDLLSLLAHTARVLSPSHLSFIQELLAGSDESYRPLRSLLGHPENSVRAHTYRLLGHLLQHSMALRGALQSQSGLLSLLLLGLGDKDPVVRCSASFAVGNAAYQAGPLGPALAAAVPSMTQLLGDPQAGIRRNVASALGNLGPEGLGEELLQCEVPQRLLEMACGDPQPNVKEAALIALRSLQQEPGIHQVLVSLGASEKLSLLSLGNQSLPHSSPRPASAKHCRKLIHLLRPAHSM

A word on the IC50: it is the midpoint of a concentration-inhibition curve. For `O=C(Nc1ccc(Oc2ncnc3[nH]ncc23)cc1)Nc1ccc(Cl)c(C(F)(F)F)c1` [Compound 1, 1-(4-(1H-pyrazolo[3,4-d]pyrimidin-4-yloxy)phenyl)-3-(4-chloro-3-(trifluoromethyl)phenyl)urea], the IC50 at PAK4 was over 10 µM.

As a reminder, the Kd is the free concentration of one partner at which half of the binding sites on the other are occupied at equilibrium, for simple one-to-one binding. The low end stands for tighter binding, the high end for weaker binding. Regarding `CC(C)(C)c1cc(NC(=O)Nc2ccc(Oc3ncnc4[nH]ncc34)c(F)c2)no1` [SKLB-677, 1-(4-(1H-pyrazolo[3,4-d]pyrimidin-4-yloxy)-3-fluorophenyl)-3-(5-tert-butylisoxazol-3-yl)urea], the results for the half-inhibitory concentration (IC50) in the assay on PANC-1, in the assay on KG-1 and with C32 were over 10 µM, 2 µM and over 10 µM, respectively. Also, the remaining binding at 10 µM stood at 47% on ARK5; 70% at MARK4; 97% at SIK; 3.2% at FLT3-D835Y; 100% at CSNK1A1; 35% in assay [1]. The remaining binding at 10 µM came out at 9.2% at SRC; 0.7% at EPHA5; 97% on STK36; 25% on LIMK1; 0.05% at STK33; 96% at GSK3B. Also, the remaining binding at 10 µM at FGFR3 worked out at 12%; at FGFR2, 2%; on MST1, 28%; on MARK2, 98%; on PIM3, 40%; on PIK3CA(I800L), 87%. On DMPK, this compound displayed a Kd of over 10 µM.
